Measured values: patent US20120070377A1, “COMPOUNDS AND BIOLOGICAL MATERIALS AND USES THEREOF” (priority 2009, published 2012)

Experiments:
KB = assay: In vitro phototoxicity (MTS cell titre assay after 670 nm laser light), Example 5; type: cell-based, human; settings: Homo sapiens, KB; free photosensitisers; 2 hrs incubation, 670 nm laser 0.5 W 10 s, MTS after 48 h
Procedure: (§1) Two different human-derived tumour cell lines: SKOV3 and KB were obtained from the European Collection of Cell Cultures (ECACC) and cultured in Dulbecco's modified Eagle's medium (DMEM) with 10% foetal bovine serum, penicillin and streptomycin antibiotics (1%) and passaged when 70-90% confluent in 75 cm^2 flasks. The cells were maintained at 37° C. in a humidified 5% CO2 atmosphere.
(§2) Cells were trypsinised and seeded at 2×10^3 cells/well for KB and 3×10^3 cells/well for SKOV3 into 96-well plates and incubated over two nights for KB and overnight for SKOV3 at 37° C. and 5% CO2. The cells were then washed once in phenol red free DMEM and appropriately diluted photosensitiser solution or photo-immunoconjugate (in DMEM, 2% DMSO) was added to the appropriate wells under subdued lighting. DMEM or Triton X-100 (1%) were added to control wells. After 2 hrs incubation in the dark at 37° C., 5% CO2, cells were washed three times with PBS and 100 μl of DMEM was added to each well.
(§3) Wells were exposed to light from a High Powered-Devices 670 nm laser used at 0.5 W for 10 s. Controls included wells with photosensitiser added and no exposure to light, or DMEM added and exposure to light as well as Triton X-100 (1%) with or without light exposure. Cells that had no photosensitiser added and no exposure to light were included as overall controls. Cells were incubated in the dark at 37° C., 5% CO2 for 48 h after which time, a cell titre assay was performed according to the manufacturer's instructions. The Promega Cell Titre-96 system was used which involves the conversion by live cells of a tetrazolium compound (MTS) into a formazan dye which is measurable by its absorbance at 490 nm.

SKOV3 = assay: as above; type: cell-based, human; settings: Homo sapiens, SK-OV-3; free photosensitisers; 2 hrs incubation, 670 nm laser 0.5 W 10 s, MTS after 48 h
Procedure: as §1, §2, §3

SKOV3 tumour = assay: Tumour uptake and tumour:blood ratio of radiolabelled photosensitisers and PICs; type: in vivo, BALB/c nude mice; settings: mouse, in vivo
Procedure: Female BALB/c nude mice (aged 6-8 weeks old) were implanted with 10^7 SKOV3 tumour cells mixed in 0.1 ml of ice-cold matrigel subcutaneously and the tumours were allowed to grow for 3-6 weeks as xenografts. Mice were maintained in IVC cages (individually-vented cages) in a clean room. Samples were injected in a volume of 0.1 ml, intravenously via the lateral tail vein and the mice were maintained in low light with full food and water (irradiated). At various time points (1-24 hr), mice were culled by cardiac puncture under terminal anesthesia and blood and tissues collected. All the tissues were counted for radioactivity by gamma counting and weighed.
The PS (PPa and PPa-PEG) were chemically coupled to C6 scFv, radiolabelled with iodogen as before, but dialysed against 3×5 L of PBS to remove the free iodine and injected into BALB/c nude mice with SKOV3 tumours as above. Tissues were dissected and counted as above.
The tumours were counted for radioactivity and expressed as % of the injected dose/g of tumour tissue (FIG. 10).
The percentage PS in the tumour was divided by the percentage in the blood (gram for gram) to give a targeting or tumour:blood ratio (the higher the better). This plotted in FIG. 11. A high tumour:blood ratio means that there is more in the tumour compared to the blood (and other tissues). This is a function of tumour uptake and blood clearance (see FIGS. 9 and 10).

[1] = Skin photosensitivity in a murine model; type: in vivo; settings: laser on the skin after 1 hour, monitored over 4 days, scale of 1-4
Procedure: FIG. 24: Skin photosensitivity of Foscan compared to compound II. Photosensitisers were administered at t=0 hrs and a laser shone on the skin after 1 hour. The skin reaction was followed over time and the results were plotted according to the scale shown.
Skin photosensitivity is an important issue to be resolved in PDT. […] In a murine model, Foscan was administered at clinical doses (ref 109) and compared to compound 11 and a photo-immunoconjugate of compound 11. Skin photosensitivity was monitored over 4 days by observation according to a scale of 1-4 (FIG. 24).

For `CCC1=C(C)c2cc3[nH]c(c(C)c3CC)c(C#CCCCC(=O)ON3C(=O)CCC3=O)c3nc(c4c5[nH]c(cc1n2)c(C)c5C(=O)C4)[C@@H](CCC(=O)OCc1cc(OCCOCCOCCOC)c(OCCOCCOCCOC)c(OCCOCCOCCOC)c1)[C@@H]3C` [compound 11, Meso 5-Ethynylhexanoyl succinimido ester pyropheophorbide a-3,4,5-(triethylene glycolmonomethylether) benzyl ester], the IC50 (KB) was 1.2 ± 0.5 µM, the IC50 (SKOV3) was 1.1 µM and the “tumour accumulation relative to the level of PPa” value (SKOV3 tumour) was “about ⅓”. For the same molecule, the skin photosensitivity [1] was “little or no skin sensitivity”.
